In assay [1] the target is T1, NADPH oxidase (Homo sapiens, UniProt P14598).
T1 construct: Neutrophils were electropermeabilized as described; endogenous in cells; host or cells: electropermeabilized peripheral blood neutrophils (PMN), stimulated with PMA or fMLP
T1 sequence (P14598 1-390): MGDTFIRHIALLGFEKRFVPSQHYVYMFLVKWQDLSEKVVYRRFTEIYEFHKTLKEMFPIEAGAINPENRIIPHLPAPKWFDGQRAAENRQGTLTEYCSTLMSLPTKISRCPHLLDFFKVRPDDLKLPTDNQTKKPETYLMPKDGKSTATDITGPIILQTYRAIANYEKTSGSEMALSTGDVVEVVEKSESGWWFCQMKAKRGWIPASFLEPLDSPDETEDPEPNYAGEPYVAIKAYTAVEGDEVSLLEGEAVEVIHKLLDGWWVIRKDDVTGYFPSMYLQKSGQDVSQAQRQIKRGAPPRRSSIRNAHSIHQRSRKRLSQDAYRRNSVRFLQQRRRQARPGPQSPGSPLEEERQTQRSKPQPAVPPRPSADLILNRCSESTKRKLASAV
As to the kind of experiment: Cell-free NADPH oxidase assay (arachidonate-stimulated O2 generation, neutrophil membrane plus cytosol). The format is biochemical. The following applies: peptide and arachidonate added simultaneously; 5 experiments; IC50 by interpolation; read-out: Mean IC50 ±SEM, inhibition of NADPH oxidase activation. As for the experimental part: Neutrophils were isolated from peripheral blood and cytosol and membrane fractions were prepared by differential centrifugation as previously described (Nunoi et al, Science, 242, 1298-1301 (1988)). Typical yields of cytosol and membrane proteins obtained were 2.8±0.1 mg/10^8 cell equivalents and 1.5±0.1 μg/10^6 cell equivalents, respectively (mean±SD, 3 separate preparations). The cell-free assay of O2 generation was modified as follows: wells contained 2.5-5.0×10^5cell equivalents neutrophil membrane, 10^6 cell equivalents neutrophil cytosol in a final volume of 100 μl reaction mixture (150 μM acetylated ferricytochrome c (11), 4 mM MgCl2, 10 μM FAD, 1 mM EGTA, 200 μM NADPH, 40 μM arachidonic acid, 10 μM GTPγ S, ±25 μg/ml superoxide dismutase in 75 mM potassium phosphate, pH 7.0). Because membrane preparations varied in activity, the amount of membrane added per well was adjusted to yield an arachidonate-stimulated O2 production of ≈0.4 nmol/min/well in the absence of synthetic peptide. The maximal linear rate of superoxide dismutase-inhibitable acetylferricytochrome c reduction (ΔO.D. […]) was converted to nmol O2 generated/min using an instrument-corrected extinction coefficient derived empirically as described (Leslie, J. Immunol. Methods, 103, 253-259 (1987)). To measure oxidase inhibition by antibodies directed against the 91 kDa subunit of cytochrome b558 membranes were solubilized in 1% deoxycholate, incubated for 30 min on ice with an equal volume of serum at various dilutions. Diluting these samples 10-fold with H2 O lowered the detergent concentration below the CMC and allowed sedimentation (130,000 g×30 min) of an oxidase-competent membrane fraction. This fraction was resolubilized in deoxycholate, and assayed for arachidonate-stimulatedO2 generation in the presence of cytosol.
In Table 1 above, the cell-free assay of O2 generation contained 2.5-5.0×10^5 cell equivalents of neutrophil (PMN) membrane, 10^6 cell equivalents PMN cytosol in a final volume of 100 μl reaction mixture. Because membrane preparations varied in activity, the amount of membrane added per well was adjusted to yield an arachidonate-stimulated O2 production of ≈0.4 nmol/min/well in the absence of synthetic peptide. Data represent the mean percent inhibition obtained in n experiments (each performed in duplicate) in the presence of 100 μM synthetic peptide compared to a simultaneous buffer control.

Assay [2] has as its target T2, 47 kDa cytosolic oxidase factor (Homo sapiens, UniProt P14598).
T2 construct: endogenous in cells; host or cells: neutrophil cytosol, with neutrophil membrane, in the cell-free reaction
T2 sequence (P14598 1-390): T1 sequence (P14598 1-390)
As to the kind of experiment: 47 kDa cytosolic protein phosphorylation in the cell-free reaction (immunoprecipitation, SDS-PAGE, autoradiography). The format is biochemical. The note with it: densitometry of autoradiograms; 3 independent experiments; read-out: Half-maximal inhibitory concentration, 47 kDa protein phosphorylation. As for the experimental part: Components of the cell-free phosphorylation reaction were identical to those for arachidonate-stimulated O2^- generation except for omission of acetylferricytochrome c and inclusion of γ-[^32 P]ATP (0.1 μCi/ml, sp. act. 5000 Ci/mmol). Twenty min after addition of arachidonate, aliquots of the cell-free reaction mixture were mixed with an equal volume of iced "stopping" buffer (150 mM NaCl, 10 mM EDTA, 1% deoxycholate, 1% NP-40, 50 mMNaF, 1 mMNa vanadate, 10 mM Tris, pH 7.4). Proteins bound to rabbit antibodies raised against recombinant 47 kDa protein (Lomax et al, Science, 245, 409-412 (1989)), were precipitated with protein G-sepharose (Harlow et al, Antibodies: A Laboratory Manual (Cold Spring Harbor Laboratory), 465-468 (1988)) and analyzed by SDS-PAGE and autoradiography with intensifying screens.
After stimulation of the neutrophil respiratory burst with phorbol esters the 47 kDa cytosolic oxidase factor is multiply phosphorylated and associates with plasma membrane. […] The immunoprecipitated proteins were analyzed by SDS-PAGE and autoradiography as described above. […] The half-maximal inhibitory concentration of 91 kDa cytochrome b558 carboxyterminal peptide determined by densitometry of autoradiograms was in the range of 25-50 μM in each of 3 independent experiments.

Where a SMILES comes first, the peptide text is derived from it.

Turning to `CC[C@H](C)[C@H](NC(=O)[C@H](Cc1ccccc1)NC(=O)[C@H](Cc1c[nH]cn1)NC(=O)[C@@H](NC(=O)CNC(=O)[C@H](CCCNC(=N)N)NC(=O)[C@@H]1CCCN1C(=O)CNC(=O)[C@H](CO)NC(=O)[C@H](CCC(=O)O)NC(=O)[C@H](CO)NC(=O)[C@H](CC(N)=O)NC(=O)[C@H](CO)NC(=O)[C@@H](N)CS)C(C)C)C(=O)N[C@@H](Cc1ccccc1)C(=O)N[C@@H](CC(N)=O)C(=O)N[C@@H](CCCCN)C(=O)N[C@@H](CCC(=O)O)C(=O)N[C@@H](CC(N)=O)C(=O)N[C@@H](Cc1ccccc1)C(=O)O` (H-CSNSESGPRGVHFIFNKENF-OH), the IC50 in assay [1] is 32 ± 2 µM; in assay [2], 25 to 50 µM.

Values taken from US5593966A, “Peptide derivatives of cytochrome b558 and their use as medicaments” (The United States of America as represented by the …, priority 1990, dated 1997).
